ChEMBL document CHEMBL1201862, “PubChem BioAssay data set” (2004)
The source made the active and inactive calls.

Experiments:
[1] = target: T1, Tyrosyl-DNA phosphodiesterase 2 (Homo sapiens, UniProt O95551); test: potency against TDP2 phosphodiesterase activity – biochemical, epi absorbance, IC50, dose response (AID 743297)
T1 sequence (O95551 whole entry): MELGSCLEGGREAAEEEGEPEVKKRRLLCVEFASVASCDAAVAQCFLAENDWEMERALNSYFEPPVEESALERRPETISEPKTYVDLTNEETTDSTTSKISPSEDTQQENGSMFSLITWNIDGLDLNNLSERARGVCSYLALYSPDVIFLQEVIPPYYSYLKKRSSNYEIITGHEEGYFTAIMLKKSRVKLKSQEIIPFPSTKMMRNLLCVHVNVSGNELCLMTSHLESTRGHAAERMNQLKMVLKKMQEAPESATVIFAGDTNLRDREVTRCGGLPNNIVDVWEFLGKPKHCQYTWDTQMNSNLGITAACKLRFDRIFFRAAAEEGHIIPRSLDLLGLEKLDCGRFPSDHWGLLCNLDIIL

[2] = target: Tyrosine-protein kinase JAK2 (Homo sapiens, UniProt O60674); type: functional;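 further: JAK2 tested as one member of a kinase panel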
[3] = target: T2, Serine/threonine-protein kinase TBK1 (Homo sapiens, UniProt Q9UHD2); test: Navigating the Kinome. Panel member name: TBK1; type: functional
T2 sequence (Q9UHD2 whole entry): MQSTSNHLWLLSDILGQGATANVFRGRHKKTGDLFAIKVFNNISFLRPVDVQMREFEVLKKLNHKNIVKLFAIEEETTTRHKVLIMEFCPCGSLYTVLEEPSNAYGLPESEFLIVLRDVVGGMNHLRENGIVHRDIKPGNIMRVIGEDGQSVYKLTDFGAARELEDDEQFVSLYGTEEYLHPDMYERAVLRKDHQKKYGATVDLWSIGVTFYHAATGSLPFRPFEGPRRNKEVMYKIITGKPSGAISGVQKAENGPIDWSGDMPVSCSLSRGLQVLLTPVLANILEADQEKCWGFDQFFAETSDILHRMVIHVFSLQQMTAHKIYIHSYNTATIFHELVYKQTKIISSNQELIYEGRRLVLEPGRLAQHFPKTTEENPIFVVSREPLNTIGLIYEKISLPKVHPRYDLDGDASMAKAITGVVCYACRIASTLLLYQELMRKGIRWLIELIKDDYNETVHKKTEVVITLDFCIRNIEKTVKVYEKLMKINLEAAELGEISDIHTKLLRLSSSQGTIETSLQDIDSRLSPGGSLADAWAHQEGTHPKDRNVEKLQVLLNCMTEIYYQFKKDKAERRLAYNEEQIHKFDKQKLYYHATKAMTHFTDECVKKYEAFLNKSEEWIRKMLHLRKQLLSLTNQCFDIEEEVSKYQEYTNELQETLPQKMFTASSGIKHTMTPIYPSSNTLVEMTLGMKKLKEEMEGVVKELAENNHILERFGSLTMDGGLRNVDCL

[4] = target: T3, Serine/threonine-protein kinase D3 (Homo sapiens, UniProt O94806); type: functional;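 further: determined within a kinase panel screen, with PRKCN as the panel member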
T3 sequence (O94806 whole entry): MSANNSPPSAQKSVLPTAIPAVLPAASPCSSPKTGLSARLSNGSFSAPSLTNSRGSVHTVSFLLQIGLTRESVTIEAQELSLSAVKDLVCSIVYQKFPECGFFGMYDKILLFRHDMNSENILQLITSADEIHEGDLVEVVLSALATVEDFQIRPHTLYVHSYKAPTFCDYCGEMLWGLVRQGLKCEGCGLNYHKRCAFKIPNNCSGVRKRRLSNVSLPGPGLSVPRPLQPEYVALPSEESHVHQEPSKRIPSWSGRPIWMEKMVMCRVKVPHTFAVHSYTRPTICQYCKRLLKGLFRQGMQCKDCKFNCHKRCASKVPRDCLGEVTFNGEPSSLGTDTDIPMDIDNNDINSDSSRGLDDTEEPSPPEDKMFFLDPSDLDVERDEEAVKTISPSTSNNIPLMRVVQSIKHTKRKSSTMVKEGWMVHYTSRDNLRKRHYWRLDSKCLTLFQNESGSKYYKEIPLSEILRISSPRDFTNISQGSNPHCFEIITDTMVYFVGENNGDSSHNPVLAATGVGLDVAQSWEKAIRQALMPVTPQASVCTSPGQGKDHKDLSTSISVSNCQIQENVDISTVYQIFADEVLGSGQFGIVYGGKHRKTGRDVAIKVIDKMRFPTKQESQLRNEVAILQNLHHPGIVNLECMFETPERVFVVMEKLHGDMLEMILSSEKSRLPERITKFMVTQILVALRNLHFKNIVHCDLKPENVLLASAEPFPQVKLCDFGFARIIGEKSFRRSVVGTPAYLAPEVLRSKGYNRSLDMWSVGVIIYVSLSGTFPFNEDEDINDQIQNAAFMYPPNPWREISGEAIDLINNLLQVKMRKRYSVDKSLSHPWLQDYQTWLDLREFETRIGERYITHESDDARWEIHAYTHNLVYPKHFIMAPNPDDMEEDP

[5] = target: High affinity nerve growth factor receptor (Homo sapiens, UniProt P04629); type: functional;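 further: NTRK1 tested as one member of a kinome-wide profiling panel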
[6] = target: Glycogen synthase kinase-3 alpha (Homo sapiens, UniProt P49840); type: functional;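 further: GSK3A result taken from a broad kinome-wide kinase panel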
[7] = target: Vascular endothelial growth factor receptor 2 (Homo sapiens, UniProt P35968); type: functional
[8] = target: Macrophage-stimulating protein receptor (Homo sapiens, UniProt Q04912); test: Navigating the Kinome. Panel member name: MST1R; type: functional
[9] = target: Macrophage colony-stimulating factor 1 receptor (Homo sapiens, UniProt P07333); type: functional;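 further: value comes from the Navigating the Kinome screening panel, CSF1R member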
[10] = target: Calcium/calmodulin-dependent protein kinase type II subunit alpha (Homo sapiens, UniProt Q9UQM7); test: Navigating the Kinome. Panel member name: CAMK2A; type: functional
Calcium/calmodulin-dependent protein kinase type II subunit alpha, sequence (Q9UQM7 whole entry): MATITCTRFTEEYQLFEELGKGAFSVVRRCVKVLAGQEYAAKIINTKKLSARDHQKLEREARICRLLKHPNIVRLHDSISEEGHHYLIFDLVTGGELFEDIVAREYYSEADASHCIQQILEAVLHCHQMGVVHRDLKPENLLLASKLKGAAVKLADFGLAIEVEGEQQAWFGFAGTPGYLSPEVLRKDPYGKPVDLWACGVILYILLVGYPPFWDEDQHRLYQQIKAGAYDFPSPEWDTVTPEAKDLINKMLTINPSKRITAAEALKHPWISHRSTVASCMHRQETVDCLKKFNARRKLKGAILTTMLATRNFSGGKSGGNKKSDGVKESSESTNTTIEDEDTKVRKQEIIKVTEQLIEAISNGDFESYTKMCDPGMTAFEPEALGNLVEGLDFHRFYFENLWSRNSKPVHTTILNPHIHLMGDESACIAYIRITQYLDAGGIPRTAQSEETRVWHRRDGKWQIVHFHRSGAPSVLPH

High affinity nerve growth factor receptor, sequence (P04629 whole entry): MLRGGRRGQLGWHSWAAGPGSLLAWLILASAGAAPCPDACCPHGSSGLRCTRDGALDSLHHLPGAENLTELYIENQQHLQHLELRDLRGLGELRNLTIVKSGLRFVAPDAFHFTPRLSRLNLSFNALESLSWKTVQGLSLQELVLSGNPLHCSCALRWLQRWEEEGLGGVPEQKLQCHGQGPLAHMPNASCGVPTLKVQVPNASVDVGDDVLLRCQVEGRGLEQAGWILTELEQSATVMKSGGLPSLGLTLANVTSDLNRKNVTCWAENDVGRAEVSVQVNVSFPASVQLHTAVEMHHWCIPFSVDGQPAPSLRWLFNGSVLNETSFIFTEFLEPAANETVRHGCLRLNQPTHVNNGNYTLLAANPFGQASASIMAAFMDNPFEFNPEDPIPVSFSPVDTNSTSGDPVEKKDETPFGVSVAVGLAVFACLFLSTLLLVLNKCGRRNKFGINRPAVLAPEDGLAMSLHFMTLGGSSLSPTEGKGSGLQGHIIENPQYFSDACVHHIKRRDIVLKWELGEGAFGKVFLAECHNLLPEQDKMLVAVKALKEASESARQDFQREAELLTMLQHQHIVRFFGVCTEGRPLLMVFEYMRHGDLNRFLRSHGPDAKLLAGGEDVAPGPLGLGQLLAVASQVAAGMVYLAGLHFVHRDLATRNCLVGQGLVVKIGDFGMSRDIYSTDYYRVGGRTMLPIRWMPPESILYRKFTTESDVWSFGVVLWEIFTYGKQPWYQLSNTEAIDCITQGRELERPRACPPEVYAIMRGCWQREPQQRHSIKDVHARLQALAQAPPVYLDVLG
Vascular endothelial growth factor receptor 2, sequence (P35968 whole entry): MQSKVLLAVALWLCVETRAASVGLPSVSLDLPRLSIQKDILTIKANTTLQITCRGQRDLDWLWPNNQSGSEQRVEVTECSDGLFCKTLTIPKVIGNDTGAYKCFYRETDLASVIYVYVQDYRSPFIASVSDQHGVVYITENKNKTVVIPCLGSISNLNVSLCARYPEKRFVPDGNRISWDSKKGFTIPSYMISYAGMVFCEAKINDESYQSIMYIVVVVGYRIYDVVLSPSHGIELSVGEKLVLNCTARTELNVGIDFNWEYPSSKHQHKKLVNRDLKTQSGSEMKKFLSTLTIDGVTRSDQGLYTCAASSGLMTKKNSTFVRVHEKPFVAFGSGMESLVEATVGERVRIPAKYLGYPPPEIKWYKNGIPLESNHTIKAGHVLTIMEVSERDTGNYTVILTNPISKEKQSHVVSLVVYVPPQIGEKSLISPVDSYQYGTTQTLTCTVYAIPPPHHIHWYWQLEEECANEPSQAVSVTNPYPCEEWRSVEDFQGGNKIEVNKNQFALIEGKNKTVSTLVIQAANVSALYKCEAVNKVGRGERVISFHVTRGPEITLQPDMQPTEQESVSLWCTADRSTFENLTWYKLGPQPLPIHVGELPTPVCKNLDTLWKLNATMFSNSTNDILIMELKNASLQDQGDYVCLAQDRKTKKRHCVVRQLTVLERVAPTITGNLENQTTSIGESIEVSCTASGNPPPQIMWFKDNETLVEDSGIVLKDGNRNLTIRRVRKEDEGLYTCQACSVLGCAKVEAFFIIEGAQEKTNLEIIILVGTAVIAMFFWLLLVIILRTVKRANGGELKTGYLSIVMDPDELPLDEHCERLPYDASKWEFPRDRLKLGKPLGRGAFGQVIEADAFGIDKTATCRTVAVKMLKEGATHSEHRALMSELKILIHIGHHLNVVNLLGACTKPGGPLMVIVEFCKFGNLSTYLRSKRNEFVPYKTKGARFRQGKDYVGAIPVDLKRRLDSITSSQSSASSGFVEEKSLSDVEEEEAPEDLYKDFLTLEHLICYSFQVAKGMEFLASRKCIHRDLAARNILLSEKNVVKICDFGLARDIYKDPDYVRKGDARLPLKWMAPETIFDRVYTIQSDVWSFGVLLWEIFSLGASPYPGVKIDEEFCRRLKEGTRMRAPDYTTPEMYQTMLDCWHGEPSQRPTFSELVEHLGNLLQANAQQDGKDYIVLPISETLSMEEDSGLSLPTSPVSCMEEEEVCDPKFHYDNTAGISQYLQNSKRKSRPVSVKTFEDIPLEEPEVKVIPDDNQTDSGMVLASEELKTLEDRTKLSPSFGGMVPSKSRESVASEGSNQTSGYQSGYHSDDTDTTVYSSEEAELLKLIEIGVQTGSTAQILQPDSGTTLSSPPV
Macrophage colony-stimulating factor 1 receptor, sequence (P07333 whole entry): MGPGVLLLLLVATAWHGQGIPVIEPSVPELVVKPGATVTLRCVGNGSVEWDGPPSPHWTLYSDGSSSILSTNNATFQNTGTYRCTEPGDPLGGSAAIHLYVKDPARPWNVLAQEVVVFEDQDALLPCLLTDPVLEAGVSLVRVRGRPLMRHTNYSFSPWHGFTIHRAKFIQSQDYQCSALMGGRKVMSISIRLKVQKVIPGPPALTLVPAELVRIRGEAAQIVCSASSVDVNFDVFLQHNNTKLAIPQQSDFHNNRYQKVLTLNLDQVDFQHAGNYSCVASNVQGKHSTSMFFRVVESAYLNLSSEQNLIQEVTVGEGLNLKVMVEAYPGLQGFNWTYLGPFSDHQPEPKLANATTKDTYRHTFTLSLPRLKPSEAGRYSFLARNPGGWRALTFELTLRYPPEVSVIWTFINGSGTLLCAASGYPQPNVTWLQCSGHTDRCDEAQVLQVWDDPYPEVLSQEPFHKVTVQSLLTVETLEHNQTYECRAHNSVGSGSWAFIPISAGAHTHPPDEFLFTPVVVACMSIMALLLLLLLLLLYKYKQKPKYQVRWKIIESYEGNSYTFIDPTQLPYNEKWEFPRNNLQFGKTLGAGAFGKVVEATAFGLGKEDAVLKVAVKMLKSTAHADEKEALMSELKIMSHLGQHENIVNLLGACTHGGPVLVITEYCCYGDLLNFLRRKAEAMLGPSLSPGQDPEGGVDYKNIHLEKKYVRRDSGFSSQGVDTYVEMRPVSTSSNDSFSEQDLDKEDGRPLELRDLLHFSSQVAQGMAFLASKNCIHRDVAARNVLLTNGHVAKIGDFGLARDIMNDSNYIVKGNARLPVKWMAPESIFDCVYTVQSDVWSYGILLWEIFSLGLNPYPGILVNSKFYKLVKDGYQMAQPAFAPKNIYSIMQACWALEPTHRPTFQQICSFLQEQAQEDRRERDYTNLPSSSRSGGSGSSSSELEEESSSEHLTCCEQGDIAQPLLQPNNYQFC
Macrophage-stimulating protein receptor, sequence (Q04912 25-304 limits assumed): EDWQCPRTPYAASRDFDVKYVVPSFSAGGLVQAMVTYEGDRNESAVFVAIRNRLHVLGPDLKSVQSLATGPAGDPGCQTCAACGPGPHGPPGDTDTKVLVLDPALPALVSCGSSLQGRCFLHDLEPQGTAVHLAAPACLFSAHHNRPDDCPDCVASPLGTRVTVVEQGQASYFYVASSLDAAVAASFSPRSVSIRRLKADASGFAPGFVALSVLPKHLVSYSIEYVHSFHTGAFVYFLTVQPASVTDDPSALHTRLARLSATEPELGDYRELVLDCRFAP
Macrophage-stimulating protein receptor, sequence (Q04912 310-1400 limits assumed): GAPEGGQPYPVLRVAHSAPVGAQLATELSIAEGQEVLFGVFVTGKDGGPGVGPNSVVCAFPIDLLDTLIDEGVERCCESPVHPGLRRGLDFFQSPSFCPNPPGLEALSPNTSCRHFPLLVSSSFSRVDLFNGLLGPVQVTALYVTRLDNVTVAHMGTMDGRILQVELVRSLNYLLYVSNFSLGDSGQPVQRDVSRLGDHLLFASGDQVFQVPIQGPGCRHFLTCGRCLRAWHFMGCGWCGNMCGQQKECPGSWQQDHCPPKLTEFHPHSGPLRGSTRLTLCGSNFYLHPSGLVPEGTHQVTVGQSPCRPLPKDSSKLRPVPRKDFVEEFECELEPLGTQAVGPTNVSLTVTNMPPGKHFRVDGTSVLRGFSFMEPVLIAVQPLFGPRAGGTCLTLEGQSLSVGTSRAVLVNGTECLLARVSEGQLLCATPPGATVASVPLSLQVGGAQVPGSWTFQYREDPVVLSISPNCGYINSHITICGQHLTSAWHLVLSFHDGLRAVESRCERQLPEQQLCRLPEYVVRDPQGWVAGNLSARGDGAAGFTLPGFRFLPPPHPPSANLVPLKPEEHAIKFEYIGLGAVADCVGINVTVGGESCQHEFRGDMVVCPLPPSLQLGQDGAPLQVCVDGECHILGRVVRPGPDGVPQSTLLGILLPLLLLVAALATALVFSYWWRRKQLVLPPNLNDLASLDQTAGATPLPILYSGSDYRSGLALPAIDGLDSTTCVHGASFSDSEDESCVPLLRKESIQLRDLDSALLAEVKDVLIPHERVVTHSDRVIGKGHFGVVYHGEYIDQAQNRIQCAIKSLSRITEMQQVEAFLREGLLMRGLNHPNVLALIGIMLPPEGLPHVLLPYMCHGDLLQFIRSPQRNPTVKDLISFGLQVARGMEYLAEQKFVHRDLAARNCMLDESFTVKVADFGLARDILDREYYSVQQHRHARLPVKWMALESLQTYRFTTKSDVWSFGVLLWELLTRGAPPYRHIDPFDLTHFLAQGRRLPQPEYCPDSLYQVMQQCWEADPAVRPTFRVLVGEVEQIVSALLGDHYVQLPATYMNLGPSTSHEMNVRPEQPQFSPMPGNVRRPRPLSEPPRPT

Compound | IC50 [1] | Ki [2] | pKi [2] | Ki [3] | pKi [3] | Ki [4] | pKi [4] | Ki [5] | pKi [5] | Ki [6] | pKi [6] | Ki [7] | pKi [7] | Ki [8] | pKi [8] | Ki [9] | pKi [9] | Ki [10] | pKi [10]
CCN(CC)CCCC(C)n1c2nc(=O)[nH]c(=O)c-2nc2cc(Cl)ccc21 (centres undefined) | 10.5 µM (inactive) | – | – | – | – | – | – | – | – | – | – | – | – | – | – | – | – | – | –
OC1CCC(Nc2nc(Cl)cc(-c3c[nH]c4ncccc34)n2)CC1 (centres undefined) | – | 0.2 µM (active) | 6.7 | 1 µM (active) | 6 | 0.0158 µM (active) | 7.8 | 0.398 µM (active) | 6.4 | 0.0631 µM (active) | 7.2 | 0.251 µM (active) | 6.6 | 0.1 µM (active) | 7 | 0.2 µM (active) | 6.7 | 0.158 µM (active) | 6.8
COc1cccc(CNC(=O)c2cnc(-c3ccncc3)nc2)c1 | – | > 2.51 µM (inactive) | – | > 3.16 µM (inactive) | – | > 3.98 µM (inactive) | – | > 3.16 µM (inactive) | – | > 3.98 µM (inactive) | – | > 2.51 µM (inactive) | – | > 3.98 µM (inactive) | – | > 2.51 µM (inactive) | – | > 7.94 µM (inactive) | –
O=C(COC(=O)c1ccc([N+](=O)[O-])s1)Nc1ccc(F)cc1 | 64.2 µM (inactive) | – | – | – | – | – | – | – | – | – | – | – | – | – | – | – | – | – | –
